# Measurements reported in patent publication US5104492A, “Recovery of carboxylic acids from water by precipitation from organic solutions” (The Regents of the University of California, priority 1990, dated 1992).
# Legend:
# [1] = Text: An aqueous solution of fumaric acid was extracted with methyl isobutyl ketone (MIBK).
# [2] = Solubility in butyl ether (Example 4 repeated); type: physicochemical
# Text: (§1) The use of MIBK plus 0.064 M tri-octyl/decyl amine as an organic phase was studied.
# The experiment of Example 4 was repeated using butyl ether as organic solvent.
# [3] = Solubility in MIBK plus 0.064 M tri-octyl/decyl amine; type: physicochemical
# Text: as §1
# [4] = Solubility in octanol (Example 4 repeated); type: physicochemical
# Text: as §1
# The experiment of Example 4 was repeated using octanol as organic solvent.
smiles,measurement,setting,value
O=C(O)/C=C/C(=O)O [fumaric acid],solubility relative to the level observed at saturation level of water,[1],less than 1/5th
same,amount of acid in MIBK extract,"[1]; MIBK extract before stripping, […] by weight water",0.0874 mol/L
same,solubility of the acid in the ketone,[1]; dry mibk,15.8 mM
same,Acid Concentration,[2]; water 0.0005 moles/liter,0.0023 mol/L
same,Acid Concentration,[2]; water 0.084 moles/liter,0.0036 mol/L
same,Acid Concentration,[3]; nearly anhydrous,0.115 mol/L
same,Acid Concentration,[3]; water saturated,0.158 mol/L
same,Acid Concentration,[4]; water 0.066 moles/liter,0.0614 mol/L
same,Acid Concentration,[4]; water 1.54 moles/liter,0.0899 mol/L
same,Acid Concentration,[4]; water 2.24 moles/liter,0.0961 mol/L
